These results are taken from ChEMBL document CHEMBL1201862, “PubChem BioAssay data set” (2004).

The nature of experiment [1]: human cervical cancer cell viability loss – 24 h, plate reader, dry powder, cytotoxicity control, dose response (AID 686928). In kind it is functional, cell-based. Conditions: HeLa.
In a further experiment the target is Beta-galactosidase (Escherichia coli, UniProt Q8VNN2). As to the kind of experiment: Dose response counterscreen for EBI2 assay utilizing the enzyme, b-galactosidase. In kind it is functional.
Chain of Beta-galactosidase (Q8VNN2 whole entry): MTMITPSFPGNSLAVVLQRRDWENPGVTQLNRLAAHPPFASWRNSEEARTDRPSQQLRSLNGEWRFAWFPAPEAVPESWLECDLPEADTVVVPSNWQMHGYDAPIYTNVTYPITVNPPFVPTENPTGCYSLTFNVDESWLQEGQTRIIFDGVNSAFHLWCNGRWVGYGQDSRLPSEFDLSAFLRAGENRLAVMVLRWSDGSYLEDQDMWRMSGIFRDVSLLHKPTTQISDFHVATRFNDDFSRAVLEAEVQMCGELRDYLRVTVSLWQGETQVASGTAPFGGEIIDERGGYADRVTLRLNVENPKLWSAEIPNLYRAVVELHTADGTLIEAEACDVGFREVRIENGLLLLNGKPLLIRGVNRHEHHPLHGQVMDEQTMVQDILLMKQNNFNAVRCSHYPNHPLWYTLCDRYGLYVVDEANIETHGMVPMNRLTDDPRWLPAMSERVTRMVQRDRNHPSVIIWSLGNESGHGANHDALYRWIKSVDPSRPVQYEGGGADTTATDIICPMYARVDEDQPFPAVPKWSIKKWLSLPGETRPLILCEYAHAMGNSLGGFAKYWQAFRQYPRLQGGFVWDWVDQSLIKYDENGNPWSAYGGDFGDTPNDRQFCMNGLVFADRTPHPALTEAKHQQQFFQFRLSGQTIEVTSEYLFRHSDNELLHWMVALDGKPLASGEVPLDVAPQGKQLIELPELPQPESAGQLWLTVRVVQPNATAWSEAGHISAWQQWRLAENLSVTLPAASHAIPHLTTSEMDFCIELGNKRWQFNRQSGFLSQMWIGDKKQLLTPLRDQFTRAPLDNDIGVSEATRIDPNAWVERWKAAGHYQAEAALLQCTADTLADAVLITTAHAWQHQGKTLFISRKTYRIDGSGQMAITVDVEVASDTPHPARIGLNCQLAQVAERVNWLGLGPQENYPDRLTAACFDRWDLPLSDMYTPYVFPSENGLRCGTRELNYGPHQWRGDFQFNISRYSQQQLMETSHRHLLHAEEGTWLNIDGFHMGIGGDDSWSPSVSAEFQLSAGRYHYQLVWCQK
A short description of experiment [2]: OVCAR8 cell viability loss – plate reader, dry powder samples, PAX8 project, dose response (AID 743197). It counts as functional, cell-based. The following applies: OVCAR-8.
Experiment [3] in a line: IGROV1 cell killing – plate reader, dry powder samples, PAX8 inhibitor project, dose response (AID 743043). The following applies: IGROV-1. In kind it is functional, cell-based.
Experiment [4] in a line: OVCAR-3 cell viability loss – plate reader, dry powder samples, PAX8 inhibitor project, dose response (AID 743044). It counts as functional, cell-based.
In the next experiment the target is Paired box protein Pax-8 (Homo sapiens, UniProt Q06710). Put plainly: PAX8 transcriptional activity inhibition in RMG-I – RMG-I cells, luciferase, cherry-pick, dose response (AID 687027).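 Also: luciferase reporter driven by Pax8 target thyroperoxidase promoter measured by SteadyGlo luminescence.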 It counts as functional, cell-based.
Chain of Paired box protein Pax-8 (Q06710 whole entry): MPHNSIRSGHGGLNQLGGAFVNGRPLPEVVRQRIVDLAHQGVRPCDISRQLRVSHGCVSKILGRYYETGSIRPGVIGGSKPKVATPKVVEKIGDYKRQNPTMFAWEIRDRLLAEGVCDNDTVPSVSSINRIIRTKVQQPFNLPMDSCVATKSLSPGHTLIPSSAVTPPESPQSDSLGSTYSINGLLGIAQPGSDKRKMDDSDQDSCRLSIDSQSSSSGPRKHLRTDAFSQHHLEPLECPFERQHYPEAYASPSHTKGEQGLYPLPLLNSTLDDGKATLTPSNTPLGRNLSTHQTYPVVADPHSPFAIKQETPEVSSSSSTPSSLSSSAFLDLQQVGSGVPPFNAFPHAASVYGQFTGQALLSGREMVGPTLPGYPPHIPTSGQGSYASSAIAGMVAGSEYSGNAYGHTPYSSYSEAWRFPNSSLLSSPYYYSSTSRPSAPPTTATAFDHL
Experiment [5] in a line: HEK-293T viability loss after treatment – luminescence, T-cell screen hits, cytotoxicity control for TCR NF-kB inhibitor project, dose response (AID 489026).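 Also: cells exposed to compound about 14 hours before the viability readout.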 In kind it is functional, cell-based.
In a further experiment the test system is INS1. As to the kind of experiment: INS-1E survival protection against cytokine death – cell-based, luminescence, retest, dose response (AID 449756).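 Also: cell death triggered by IL-1 beta plus TNF-alpha plus IFN-gamma mixture; protective hits raise ATP signal compared with cytokine alone wells.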 In kind it is functional. Conditions: Rattus norvegicus.
The target in a further experiment is Galanin receptor type 3 (Homo sapiens, UniProt O60755). As to the kind of experiment: Fluorescence-based cell-based primary high throughput dose response assay to identify antagonists of the Galanin Receptor 3 (GalR3). In kind it is functional.
Chain of Galanin receptor type 3 (O60755 whole entry): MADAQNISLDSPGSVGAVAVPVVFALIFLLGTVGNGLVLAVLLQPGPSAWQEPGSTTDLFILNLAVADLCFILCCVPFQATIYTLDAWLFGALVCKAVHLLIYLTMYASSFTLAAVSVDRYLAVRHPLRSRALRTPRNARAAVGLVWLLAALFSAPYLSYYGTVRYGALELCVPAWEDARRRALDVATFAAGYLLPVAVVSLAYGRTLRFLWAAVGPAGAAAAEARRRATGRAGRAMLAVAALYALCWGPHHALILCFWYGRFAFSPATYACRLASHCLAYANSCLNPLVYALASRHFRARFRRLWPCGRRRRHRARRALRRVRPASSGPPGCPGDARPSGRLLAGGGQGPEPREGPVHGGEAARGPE
In experiment [6] the target is T1, COUP transcription factor 2 (Homo sapiens, UniProt P24468).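 Also: HEK293 cells transiently cotransfected with COUP-TFII expression vector and reporter; luciferase reporter luminescence driven by COUP-TFII from the pX2-168 reporter plasmid.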
T1 sequence (P24468 whole entry): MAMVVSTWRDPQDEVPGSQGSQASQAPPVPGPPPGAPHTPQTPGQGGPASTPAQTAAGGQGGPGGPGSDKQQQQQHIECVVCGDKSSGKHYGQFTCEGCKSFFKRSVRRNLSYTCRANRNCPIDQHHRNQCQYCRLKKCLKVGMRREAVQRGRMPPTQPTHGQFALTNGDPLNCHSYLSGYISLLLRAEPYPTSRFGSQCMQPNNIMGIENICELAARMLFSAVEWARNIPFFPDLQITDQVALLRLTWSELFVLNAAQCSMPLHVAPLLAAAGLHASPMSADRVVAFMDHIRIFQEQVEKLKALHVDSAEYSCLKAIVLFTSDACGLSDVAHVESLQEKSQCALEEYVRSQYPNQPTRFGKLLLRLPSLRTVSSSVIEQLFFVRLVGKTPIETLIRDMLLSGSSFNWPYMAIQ
As to the kind of experiment: Luminescence-based cell-based high throughput dose response assay to identify inhibitors of COUP-TFII (NR2F2). It counts as functional.

Another experiment can be described thus: cells. Conditions: HEK-CNG. In kind it is functional, cell-based.
Experiment [7] in a line: Trypanosoma cruzi growth suppression in host cells – NIH3T3 host cells, beta-gal luminescence, confirmation (AID 2044).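 Also: intracellular parasites grown in NIH/3T3 mouse fibroblasts as host cells; luminescent beta-galactosidase reporter signal from transgenic T. cruzi replicating inside host cells; inhibitors lower the luminescence signal.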 It counts as functional, cell-based.
Experiment [8] can be described thus: blockers of HIV-1 ZM109 envelope-driven cell-cell fusion – HeLa effector, CEM target cells, luciferase, cherry-pick, dose response (AID 652058).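 Also: luciferase signal from HIV-1 Env mediated cell-cell fusion of effector and target cells.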 In kind it is functional, cell-based.
A short description of experiment [9]: NIH3T3 cell viability loss – ATP luminescence, mouse fibroblasts, counter-screen, dose response (AID 2010).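 Also: cells exposed to compound for about 90 hours before reading.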 In kind it is functional, cell-based.
Experiment [10] is described as follows: blockers of HIV-1 envelope-mediated cell-cell fusion – cherry-pick, dose response (AID 652057). In kind it is functional, cell-based.
The nature of experiment [11]: viability loss in CEM21 cells – cell-based, CellTiter-Glo luminescence, cherry-picked, cytotoxicity control for viral fusion inhibitor project, dose response (AID 652042).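 Also: potency for signal decrease meaning cytotoxicity.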 It counts as functional.
A short description of experiment [12]: off-target signal loss in HeLa-CEM21 co-culture – HeLa F-luc CTL cells, cherry-picked, counter-screen for HIV-1 Env fusion inhibitor project, dose response (AID 652040).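 Also: potency for signal decrease marking cytotoxic or nonspecific inhibition.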 It counts as functional, cell-based.
Experiment [13] in a line: HIV-1 AD8 envelope cell-cell fusion blockers – cherry-pick, dose response (AID 652062).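 Also: luciferase signal from cell-cell fusion driven by HIV-1 clade B AD8 Env; potency is for inhibitors of fusion seen as a drop in luminescence.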 In kind it is functional, cell-based.
A further experiment concerns Vero. As to the kind of experiment: viability loss in Vero cells – cell-based, plate reader, cherry-pick samples, cytotoxicity control, dose response (AID 687020). In kind it is functional. Conditions: Chlorocebus sabaeus.
In experiment [14] the target is T2, Corticotropin-releasing factor receptor 2/Corticotropin-releasing factor-binding protein (Homo sapiens, UniProt P24387+Q13324).
T2 sequence (Q13324 whole entry): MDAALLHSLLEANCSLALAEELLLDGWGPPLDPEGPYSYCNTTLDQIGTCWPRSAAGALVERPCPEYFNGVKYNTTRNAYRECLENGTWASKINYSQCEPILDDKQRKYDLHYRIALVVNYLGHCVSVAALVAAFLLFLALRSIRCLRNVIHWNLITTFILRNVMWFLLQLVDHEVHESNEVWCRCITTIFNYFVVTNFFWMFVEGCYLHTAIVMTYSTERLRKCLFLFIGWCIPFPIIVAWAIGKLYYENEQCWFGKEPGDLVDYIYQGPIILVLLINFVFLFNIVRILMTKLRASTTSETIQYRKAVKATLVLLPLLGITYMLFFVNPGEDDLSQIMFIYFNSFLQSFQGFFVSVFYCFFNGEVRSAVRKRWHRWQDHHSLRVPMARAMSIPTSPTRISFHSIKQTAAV
T2 sequence (P24387 whole entry): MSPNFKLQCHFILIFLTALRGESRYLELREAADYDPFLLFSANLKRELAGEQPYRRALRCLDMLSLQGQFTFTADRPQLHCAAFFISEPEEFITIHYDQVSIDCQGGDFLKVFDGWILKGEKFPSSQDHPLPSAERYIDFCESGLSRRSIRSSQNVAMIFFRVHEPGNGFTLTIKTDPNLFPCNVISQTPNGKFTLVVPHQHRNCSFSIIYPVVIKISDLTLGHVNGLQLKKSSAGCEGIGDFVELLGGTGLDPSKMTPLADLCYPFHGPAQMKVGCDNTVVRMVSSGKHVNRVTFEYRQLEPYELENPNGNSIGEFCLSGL
Put plainly: Dose Response confirmation of uHTS hits for small molecule antagonists of the CRF-binding protein and CRF-R2 receptor complex. It counts as functional. Conditions: read-out: IC50_Mean.

Experiment [15] addresses T2, Corticotropin-releasing factor receptor 2/Corticotropin-releasing factor-binding protein. Put plainly: activators of CRF receptor 2 with binding protein – uHTS hits, confirmation (AID 602473). It counts as functional. Conditions: read-out: EC50_Mean.

Activity calls are given as the source filed them. A value given as a limit tells only on which side of the number the result lay.

As for `O=c1ncn(-c2cccc(Cl)c2)c2cc(Cl)ccc12`, in experiment [1], the AC50 was > 160 µM (inactive).

Consider `Cc1c(C(=O)N2CCN(c3ncccn3)CC2)oc2ccc(Cl)cc12`, for which, at Beta-galactosidase, the IC50 was > 80 µM (inactive).

As to `Cc1ccc(S(=O)(=O)N(C)C[C@H]2OCCCC[C@H](C)Oc3ccc(NS(=O)(=O)c4ccc(Cl)cc4)cc3C(=O)N([C@H](C)CO)C[C@@H]2C)cc1`, the AC50 in [2] is 31.7 µM (active); in experiment [3] it was 45.7 µM (active); in [4] it was 17.9 µM (active); at Paired box protein Pax-8 it was 4.09 µM (active).

Turning to `Cn1nc(C(C)(C)C)cc1C(=O)NCc1cc(F)cc2c1OCOC2`, the IC50 in [5] is > 80 µM (inactive); on Galanin receptor type 3, 0.987 µM (active); in experiment [6], 6.69 µM (active). In addition, the AC50 in the experiment with INS1 is 4.13 µM (active). In addition, the EC50 in “cells” is > 29.9 µM (inactive).

On to `CCN(CC(O)CON=C1c2ccccc2-c2ccccc21)S(=O)(=O)c1ccc(Cl)cc1` (stereo unspecified), for which the values for the EC50 in experiment [7] and in [9] were 2.15 µM (active) and > 60 µM (not active), respectively. For the same compound, the concentration at half-maximal activity (AC50) in experiment [8] was 16.3 µM (active); in experiment [10], 5.8 µM (active); in experiment [11] it was 29.3 µM (active); in experiment [12], 10.1 µM (active); in experiment [13], 28.6 µM (active).

In the case of `CCCn1c(=N)n(CC(O)COc2ccc(C)cc2)c2ccccc21` (stereo unspecified), the concentration at half-maximal activity (AC50) in the experiment with Vero is 24.6 µM (active). The IC50 in experiment [14] is > 47.1 µM (inactive). Besides, the EC50 in experiment [15] was > 53 µM (inactive).
